From patent US20220370453A1 (Storm Therapeutics Ltd, priority 2019, published 2022) come the findings set out here.

Test [1] has as its target T1, BCDIN3D (Homo sapiens, UniProt Q7Z5W3).
T1 sequence (Q7Z5W3 1-292): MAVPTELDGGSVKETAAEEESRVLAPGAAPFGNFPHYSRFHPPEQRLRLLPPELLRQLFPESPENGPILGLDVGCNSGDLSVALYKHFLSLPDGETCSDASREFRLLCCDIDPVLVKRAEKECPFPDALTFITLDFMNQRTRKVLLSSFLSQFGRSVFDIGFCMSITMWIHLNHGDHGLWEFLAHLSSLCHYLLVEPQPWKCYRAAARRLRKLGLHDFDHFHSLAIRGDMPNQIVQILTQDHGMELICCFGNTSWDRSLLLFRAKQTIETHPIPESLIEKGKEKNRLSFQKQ
Kind of test: BCDIN3D IC50 RFMS (RapidFire) assay with mini-helix. Type of test: biochemical. Particulars: mini-helix 0.2 μM and SAM 6 μM as substrates, 25 nM enzyme, 1 hr at 37° C. On the procedure:
The following General Methods details the assay conditions for the Biological assays.
BCDIN3D IC50 RFMS Assay with Mini-Helix
The enzymatic assay was performed in a 384-well polypropylene plate in assay buffer with 25 mM Tris pH 8.0, 10 mM DTT, 1 mM EDTA, 0.03% BSA in a final assay volume of 20 μL. The enzyme with a final concentration of 25 nM was pre-incubated with the respective compound at 1% DMSO final assay concentration over 10 min at room temperature. The reaction was initiated by addition of 0.2 μM final assay concentration of mini-helix and 6 μM final concentration of SAM as substrates. After a 1 hr incubation at 37° C., the reaction was terminated with 40 μL of stop solution of 7.5% trichloroactetic acid in water containing 112.5 nM D4-SAH and 30 nM ^13C10-SAH used as internal standards. The SAH product concentrations as well as both internal standards were analyzed by a RapidFire High Throughput Mass Spectrometry System (Agilent Technologies, Santa Clara, Calif.) using an AP14000 triple quadrupole mass spectrometer (AB Sciex Framingham, Mass.).

The target in test [2] is T1, BCDIN3D. Kind of test: BCDIN3D InCellPulse thermal stability assay in transfected A549 cells. Type of test: cell-based. Particulars: A549 cells transiently transfected with ePL-BCDIN3D, 1 h pre-incubation, heat shock 58° C. 15 min. On the procedure:
BCDIN3D InCellPulse™ Assay
The thermal stability assay was performed with lipofectamine 3000 transiently transfected A549 using the plasmid pICP-ePL-BCDIN3 Da. This plasmid encodes for BCDIN3D N-terminally fused to a Prolabel (ePL), complementing a split β-Galactosidase Enzyme System InCELL Pulse Technology (InCELL Hunter Detection Kit, DiscoverX/Eurofins, cat: 96-0079L). 20 μl A549 cells (1500 cell/well) were added with a multidrop device to compounds to a final DMSO concentration of 0.6% in 384-well polypropylene plate format in IMDM medium and pre-incubated with the compounds for 1 h at 37° C. and 5% CO2. Subsequently, a heat shock was applied to the entire sealed plate in a 58° C. water bath for 15 min. The plates were cooled to RT, spun down and 25 μl/well of EA Detection Solution at 3.3× (InCELL Hunter Detection Kit) was added per well. 21 μl of the mixture was added to a black 384-well measurement plate (Corning, PS, black, Flat Bottom, #3575), mix for 30 minutes on a plate shaker at RT. Finally, the luminescence was measured with a Perkin Elmer EnVision with 0.2 s measurement time in luminescence mode.

In general, IC50 refers to the concentration at which inhibition is half-maximal. On to `CNc1nc(NC[C@@](C)(N)c2ccccc2)nc2c1cnn2C` (single isomer, unassigned) [Compound 7.10], for which the IC50 is 7650 nM on BCDIN3D [1] and 10800 nM against BCDIN3D [2].

Take `Cn1ncc2c(Nc3ccc(C(F)(F)F)nc3)nc(NC[C@](C)(N)c3ccccc3)nc21` (single isomer, unassigned) [Compound 7.13]: the IC50 on BCDIN3D [1] came out at 2620 nM; against BCDIN3D [2], 6000 nM. For `Cn1ncc2c(Nc3ccc(C(F)(F)F)nc3)nc(NCC(C)(N)c3ccccc3)nc21` (single isomer, unassigned) [Compound 7.15] the same measures were 38.1 nM and 133 nM. For the compound `[2H]C([2H])([2H])n1ncc2c(NC(C)(C)C)nc(NCC(N)c3ccccc3F)nc21` (stereo in doubt) [Compound 7.17, N6-[(2S)-2-amino-2-(2-fluorophenyl)ethyl]-N4-tert-butyl-1-(trideuteriomethyl)pyrazolo[3,4-d]pyrimidine-4,6-diamine], the IC50 is 981 nM against BCDIN3D [1] and 2140 nM against BCDIN3D [2].

As to `Cn1ncc2c(Nc3ccc(C(F)(F)F)cc3)nc(NCCN)nc21` [Compound 1.01, N6-(2-Aminoethyl)-1-methyl-N4-[4-(trifluoromethyl)phenyl]pyrazolo[3,4-d]pyrimidine-4,6-diamine], the IC50 against BCDIN3D [1] came to 1980 nM; at BCDIN3D [2] it was 3330 nM. For `Cn1ncc2c(Nc3ccc(Oc4ccccc4)cc3)nc(NCCN)nc21` [Compound 1.03, N6-(2-aminoethyl)-1-methyl-N4-(4-phenoxyphenyl)-1H-pyrazolo[3,4-d]pyrimidine-4,6-diamine], the IC50 on BCDIN3D [1] turned out to be 975 nM; at BCDIN3D [2], 918 nM. With `Cn1ncc2c(Nc3cccc(Oc4ccccc4)c3)nc(NCCN)nc21` [Compound 1.04, N6-(2-aminoethyl)-1-methyl-N4-(3-phenoxyphenyl)-1H-pyrazolo[3,4-d]pyrimidine-4,6-diamine], the IC50 against BCDIN3D [1] was 1260 nM; on BCDIN3D [2], 1530 nM. In the case of `Cn1ncc2c(NCc3ccc(-c4ccccc4)cc3)nc(NCCN)nc21` [Compound 1.05, N6-(2-aminoethyl)-1-methyl-N4-[(4-phenylphenyl)methyl]pyrazolo[3,4-d]pyrimidine-4,6-diamine], the IC50 on BCDIN3D [1] was 2210 nM; against BCDIN3D [2], 2970 nM. Taken in the same sequence, the figures for `COc1ccc(C(C)Nc2nc(NCCN)nc3c2cnn3C)cc1Cl` (centres unmarked) [Compound 1.06, N6-(2-aminoethyl)-N4-[1-(3-chloro-4-methoxyphenyl)ethyl]-1-methyl-1H-pyrazolo[3,4-d]pyrimidine-4,6-diamine] were 1680 nM and 2930 nM.

Take `COc1cccc(-c2cccc(Nc3nc(NCCN)nc4c3cnn4C)c2)c1` [Compound 1.11, N6-(2-aminoethyl)-N4-{3′-methoxy-[1,1′-biphenyl]-3-yl}-1-methyl-1H-pyrazolo[3,4-d]pyrimidine-4,6-diamine]: the results for the IC50 on BCDIN3D [1] and at BCDIN3D [2] were 762 nM and 1060 nM, respectively. For the compound `COc1cccc(-c2ccc(Nc3nc(NCCN)nc4c3cnn4C)cc2)c1` [Compound 1.14, N6-(2-aminoethyl)-N4-{3′-methoxy-[1,1′-biphenyl]-4-yl}-1-methyl-1H-pyrazolo[3,4-d]pyrimidine-4,6-diamine], the IC50 came out at 568 nM against BCDIN3D [1] and 754 nM against BCDIN3D [2]. For `COc1ccc(-c2cccc(Nc3nc(NCCN)nc4c3cnn4C)c2)cc1` [Compound 1.15, N6-(2-aminoethyl)-N4-{4′-methoxy-[1,1′-biphenyl]-3-yl}-1-methyl-1H-pyrazolo[3,4-d]pyrimidine-4,6-diamine] the same measures were 541 nM and 1020 nM. As for `Cn1ncc2c(Nc3cccc(-c4ccccc4)c3)nc(NCCN)nc21` [Compound 1.16, N6-(2-aminoethyl)-N4-{[1,1′-biphenyl]-3-yl}-1-methyl-1H-pyrazolo[3,4-d]pyrimidine-4,6-diamine], the IC50 against BCDIN3D [1] worked out at 744 nM; on BCDIN3D [2] it was 1700 nM.

On to `COc1ccc(Nc2nc(NCCN)nc3c2cnn3C)cc1Cl` [Compound 1.21, N6-(2-aminoethyl)-N4-(3-chloro-4-methoxyphenyl)-1-methyl-1H-pyrazolo[3,4-d]pyrimidine-4,6-diamine], for which the IC50 against BCDIN3D [1] turned out to be 1150 nM; against BCDIN3D [2] it was 8070 nM. For the compound `Cn1ncc2c(NCc3cccc(C(F)(F)F)c3)nc(NCCN)nc21` [Compound 1.23, N6-(2-aminoethyl)-1-methyl-N4-{[3-(trifluoromethyl)phenyl]methyl}-1H-pyrazolo[3,4-d]pyrimidine-4,6-diamine], the IC50 against BCDIN3D [1] was determined as 7720 nM; at BCDIN3D [2] it was 8470 nM. Take `COc1ccc(CNc2nc(NCCN)nc3c2cnn3C)c(OC)c1` [Compound 1.24, N6-(2-aminoethyl)-N4-[(2,4-dimethoxyphenyl)methyl]-1-methyl-1H-pyrazolo[3,4-d]pyrimidine-4,6-diamine]: the IC50 against BCDIN3D [1] is 2250 nM; at BCDIN3D [2], 10600 nM. For the compound `COc1ccc(CNc2nc(NCCN)nc3c2cnn3C)cc1Cl` [Compound 1.25, N6-(2-aminoethyl)-N4-[(3-chloro-4-methoxyphenyl)methyl]-1methyl-1H-pyrazolo[3,4-d]pyrimidine-4,6-diamine], the IC50 on BCDIN3D [1] was 1660 nM; against BCDIN3D [2], 7720 nM. Consider `COc1ccc(CNc2nc(NCC(C)(C)N)nc3c2cnn3C)cc1Cl` [Compound 1.26, N6-(2-amino-2-methylpropyl)-N4-[(3-chloro-4-methoxyphenyl)methyl]-1-methyl-1H-pyrazolo[3,4-d]pyrimidine-4,6-diamine], for which the IC50 worked out at 744 nM at BCDIN3D [1] and 1870 nM against BCDIN3D [2].

Consider `COc1ccc(CNc2nc(NCC(C)(C)N)nc3c2cnn3C)cc1` [Compound 1.27, N6-(2-amino-2-methylpropyl)-N4-[(4-methoxyphenyl)methyl]-1-methyl-1H-pyrazolo[3,4-d]pyrimidine-4,6-diamine], for which the IC50 is 2880 nM at BCDIN3D [1] and 5340 nM against BCDIN3D [2]. For `Cn1ncc2c(NCc3ccc(-c4ccccc4)cc3)nc(NCC(C)(C)N)nc21` [Compound 1.28, N6-(2-amino-2-methylpropyl)-N4-({[1,1′-biphenyl]-4-yl}methyl)-1-methyl-1H-pyrazolo[3,4-d]pyrimidine-4,6-diamine] the same measures were 1110 nM and 765 nM. Turning to `COc1ccc(CNc2nc(NCC(C)(C)N)nc3c2c(C)nn3C)cc1Cl` [Compound 1.30, N6-(2-amino-2-methylpropyl)-N4-[(3-chloro-4-methoxyphenyl)methyl]-1,3-dimethyl-1H-pyrazolo[3,4-d]pyrimidine-4,6-diamine], the IC50 on BCDIN3D [1] came out at 1850 nM; at BCDIN3D [2], 3790 nM.

Consider `Cc1nn(C)c2nc(NCC(C)(C)N)nc(NCc3ccc(-c4ccccc4)cc3)c12` [Compound 1.31, N6-(2-amino-2-methylpropyl)-N4-({[1,1′-biphenyl]-4-yl}methyl)-1,3-dimethyl-1H-pyrazolo[3,4-d]pyrimidine-4,6-diamine], for which the half-inhibitory concentration (IC50) on BCDIN3D [1] stood at 950 nM; against BCDIN3D [2], 814 nM. `Cn1ncc2c(Nc3ccc(C(F)(F)F)cc3)nc(NCC3(N)CCCCC3)nc21` [Compound 1.32, N6-[(1-aminocyclohexyl)methyl]-1-methyl-N4-[4-(trifluoromethyl)phenyl]pyrazolo[3,4-d]pyrimidine-4,6-diamine]: the results for the IC50 on BCDIN3D [1] and against BCDIN3D [2] were 77.9 nM and 234 nM, respectively. Taken in the same sequence, the figures for `Cc1nn(C)c2nc(NCC(C)(C)N)nc(Nc3cccc(C(F)(F)F)c3)c12` [Compound 1.33, N6-(2-amino-2-methylpropyl)-1,3-dimethyl-N4-[3-(trifluoromethyl)phenyl]-1H-pyrazolo[3,4-d]pyrimidine-4,6-diamine] were 4330 nM and 6460 nM. Consider `Cn1ncc2c(NC(C)(C)C)nc(NC[C@H](N)c3ccccc3F)nc21` [Compound 7.12, N6-[(2R)-2-amino-2-(2-fluorophenyl)ethyl]-N4-tert-butyl-1-methyl-pyrazolo[3,4-d]pyrimidine-4,6-diamine], for which the IC50 on BCDIN3D [2] was determined as 2150 nM.

As to `Cn1ncc2c(NC(C)(C)C)nc(NC[C@@H](N)C3CCCCC3)nc21` [Compound 7.23, N6-[(2S)-2-amino-2-cyclohexylethyl]-N4-tert-butyl-1-methyl-1H-pyrazolo[3,4-d]pyrimidine-4,6-diamine], half-maximal inhibition against BCDIN3D [1] (IC50) required 5170 nM. That is a single-digit micromolar value.
